Results from patent publication US20220273617A1, “ANTI-CANCER, ANTI-INFLAMMATORY AND IMMUNOMODULATORY ACTIVITY OF R-CARVEDILOL AND METHODS OF USE” (priority 2021, published 2022).

Tests used:
[1] = test system: B(a)P-induced lung toxicity; assay: Short term single dose B(a)P-induced lung toxicity in mice; type: in vivo, CD1/IGS mice; conditions: for plasma LDH levels / plasma MDA levels (LPO): B(a)P 125 mg/kg on day 7
Excerpt: Chronic exposure to carcinogens that are present in tobacco smoking or air pollution is a well-known cause of lung cancer. One of the most important strategies to manage lung cancer is chemoprevention, which uses synthetic or natural products to block or reverse lung cancer initiation, promotion, and progression. Benzo(a)pyrene (B(a)P), a polycyclic aromatic hydrocarbon, is a pro-carcinogen ubiquitously present as pollutants in the environment. It is mostly produced during cigarette smoking and is present in automobile exhausts, and causes lung toxicity and lung cancer after metabolic activation. A single dose B(a)P-induced lung toxicity study in mice was used to evaluate the protective effects of carvedilol. In male CD1/IGS mice, carvedilol was orally administered (20 mg/kg body weight) once a day for 7 days. The mice were then treated with a single dose B(a)P via oral gavage (125 mg/kg body weight) on day 7, 30 min after the drug treatment. Mice were sacrificed 24 hours after B(a)P treatment. As expected, B(a)P increased the plasma levels of lactate dehydrogenase (LDH) and Malondialdehyde (MDA) for lipid peroxides (LPO).

[2] = test system: JB6; conditions: among 16 β-blockers examined (Cleveland K H, 2019); cited from earlier work
[3] = test system: B(a)P-induced lung tumor; assay: Long term B(a)P-induced lung carcinogenesis in A/J mice; type: in vivo; conditions: for tumor incidence: B(a)P only 100%
Method: To examine the chemopreventive efficacy of carvedilol, we used an established lung carcinogenesis model in A/J mice induced by B(a)P. Two drug doses were examined: 20 mg/kg (H) and 3.2 mg/kg (L). The mice were randomly divided by body weight into seven groups at the beginning of the experiments. To induce lung tumor, mice were given a single intraperitoneal (i.p.) injection of B(a)P at 100 mg/kg body weight in 0.2 ml tricaprylin. The following are treatment groups: (1) vehicle control, n=8; (2) B(a)P only, n=9; (3) B(a)P+gefitinib 400 mg/kg, weekly oral gavage, positive control, n=10; (4) B(a)P+carvedilol 20 mg/kg drinking water, n=9; (5) B(a)P+carvedilol 3.2 mg/kg drinking water, n=8; (6) B(a)P+R-carvedilol 20 mg/kg drinking water, n=9; (7) B(a)P+R-carvedilol 3.2 mg/kg drinking water, n=10. The mice began the drug treatments 3 weeks before B(a)P treatment and terminated at 23 weeks after B(a)P treatment. […] Tumor multiplicity was determined by counting surface tumors in fixed lung under a dissecting microscope. […] The tumor incidence for gefitinib group was 70%. The tumor incidence was 89% and 50% for high and low dose carvedilol, respectively. The tumor incidence was 67% and 70% for high and low dose R-carvedilol, respectively.

[4] = test system: UV-induced immunosuppression; assay: UV-induced suppression of contact hypersensitivity (CHS) to DNFB; type: in vivo, SKH-1 hairless mice; conditions: single dose i.p. 2 h before UV 224 mJ/cm^2; carvedilol 1 and 10 mg/kg, R-carvedilol 10 mg/kg
Method: Mice were treated with NS398, CAR or R-CAR (L: 1 mg/kg; H: 10 mg/kg) i.p. 2 hr before UV exposure (224 mJ/cm^2). 24 h after, mice were sensitized with DNFB on back. After 7 days, the right ears were challenged with DNFB. 24 h after, 5 mm punch biopsies were obtained from both ears and weighed. The data are the mean±SE difference in ear biopsy weights (right-left) from n=5 mice (male). *: P<0.05; **: P<0.01.
The data listed are the mean±SE difference in ear biopsy weights (Right-Left) from n=5 mice (male). *: P<0.05; **:P<0.01.
Immunosuppression induced by UV radiation is commonly investigated using the contact hypersensitivity (CHS) response to contact allergens such as the hapten dinitrofluorobenzene (DNFB). […] Thus, carvedilol's skin cancer preventive activity may be partly attributed to its inhibitory effects on UV-induced immunosuppression.
The mice were pretreated with single dose of R-carvedilol (10 mg/kg, i.p.) two hours before UV radiation, and were subject to UV exposure. […] Thus, R-carvedilol, although not a β-blocker, similarly reverses UV-induced immunosuppression.
CHS assay was used to evaluate the effects of a topical delivery system of carvedilol developed by us, named “T-CAR”, on UV-induced immunosuppression. […]

[5] = orally administered; cited from earlier work
[6] = test system: 4T1; assay: Triple negative breast tumor 4T1 in BalB/C mice; type: in vivo
Method: To investigate the effect of carvedilol and R-carvedilol on breast cancer growth, the BalB/C mice were treated with the drugs (20 mg/kg/day) in drinking water for two weeks before the mice were inoculated with murine triple negative breast tumor 4T1 in the fourth left mammary fat pad. […] The same experimental model was treated with carvedilol or R-carvedilol, in combination with the anti-PD-1 therapy.

[7] = test system: UV induced skin carcinogenesis; assay: Chronic UV induced skin carcinogenesis model; type: in vivo, mice; conditions: topical, chronic UV
[8] = test system: B16-F10 tumor; assay: B16-F10 tumor bearing C57BL/6 mice; type: in vivo; conditions: topical daily
Method: Comparison of the efficacy of free drug and T-CAR (day 14). One day after tumor inoculation (two tumors per mouse, mice received free drug or T-CAR daily.
One day after tumor inoculation (one per mouse), mice received free drug or T-CAR daily, 200 μg RMP1-14 twice a week, or combination.
A: group 1, control; B: group 4, T-CAR+RMP1-14. Tumor collected at day 20 after inoculation.
Tumor collected at day 20 after inoculation.
The carvedilol loaded transfersome, T-CAR, was evaluated in vitro and in vivo on melanoma growth. […] To examine the in vivo activity of T-CAR, in C57BL/6 mice bearing the B16-F10 tumor, the T-CAR gel as a topical monotherapy was examined. The efficacy of T-CAR was compared with free drug dissolved in acetone in male mice bearing B16-F10 (two tumors inoculated in each mouse). […] Second study examined efficacy of topical T-CAR combined with anti-PD-1 (RMP1-14, 200 μg per mouse, i.p. twice per week) (one tumor was inoculated in each mouse).

[9] = Systolic blood pressure of mice, noninvasive tail-cuff system; type: in vivo; conditions: mouse, in vivo, 32 mg/kg/day
Method: SKH-1 mice were given racemic carvedilol or R-carvedilol in drinking water for two weeks (32 mg/kg/day). Blood pressure was examined in mice utilizing a Kent CODATM noninvasive tail-cuff system.

[10] = Ex vivo permeation across rat skin, Franz diffusion cells; type: in vitro ADME; conditions: rat, 200 μg/mL
Method: Instead of nanoparticle-based topical delivery, the present inventors have explored other methods of skin delivery of drugs. They investigated the effects of natural penetration enhancers on the ex vivo permeation of carvedilol across rat skin. […] The drug formulations containing carvedilol or R-carvedilol (200 μg/mL) (1 mL) was loaded on Franz diffusion cells using excised rat dorsal skin (with hair removed). […] D-limonene is isolated from orange peel, and is a cheap and safe option to delivery carvedilol (same for R-carvedilol) for skin cancer prevention. D-limonene is present in many skin commercial products such as perfumes and essential oils. Therefore, this invention provides another novel approach of making skin targeting formulation for both carvedilol and R-carvedilol. This approach of making skin formulation is not only safe but also easier to scale up to industry level for making large amount.

[11] = test system: JB6; assay: EGF-induced JB6 transformation; type: cell-based, mouse
[12] = oral 20 mg/kg once a day for 7 days

COc1ccccc1OCCNCC(O)COc1cccc2[nH]c3ccccc3c12 (racemic) [carvedilol]
B(a)P-induced expression of COX-2 in lung (IHC) [1, 12]: attenuated | plasma LDH levels [1, 12]: significantly attenuated | plasma MDA levels (LPO) [1, 12]: significantly attenuated | B(a)P-induced lung morphological changes (histology) ([1]; oral 20 mg/kg once a day for 7 days, H&E): reduction in these morphological changes | potency in preventing EGF-induced neoplastic transformation of mouse epidermal cells [2]: highest potency | tumor incidence ([3]; high dose 20 mg/kg drinking water): 89% | tumor incidence ([3]; low dose 3.2 mg/kg drinking water): 50% | tumor multiplicity ([3]; lower dose 3.2 mg/kg drinking water): significantly attenuated | UV-induced CHS suppression [4]: reversed UV-induced suppression of CHS | bioavailability [5]: 24% | tumor growth ([6]; 20 mg/kg/day in drinking water from two weeks before inoculation, monotherapy): significantly reduced | efficacy in combination with anti-PD-1 therapy ([6]; same 4T1 model, combined with anti-PD-1): enhanced the efficacy of anti-PD-1 monotherapy | delay in tumor formation compared to UV only controls [7]: 3 week | tumor inhibition (total tumor volume) ([8]; 10 μM, day 14, two tumors per mouse, male mice): trend of tumor inhibition | tumor inhibition (total tumor volume) ([8]; free drug in acetone 100 μM (CAR H), day 14): less effective | mean systolic blood pressure [9]: statistically reduced mean systolic blood pressure | permeation [10]: 1.6 ± 0.25 µg | permeation ([10]; pH 7.4): 0.430 /−0.07 μg

COc1ccccc1OCCNC[C@H](O)COc1cccc2[nH]c3ccccc3c12 [S-carvedilol]
plasma LDH levels [1, 12]: significantly attenuated | plasma MDA levels (LPO) [1, 12]: significantly attenuated | protection against B(a)P-induced histological changes and COX-2 expression ([1]; oral, compared with racemic carvedilol): same degree of protection as the racemic carvedilol | inhibitory effects on EGF-induced JB6 transformation [11]: nearly identical inhibitory effects

COc1cc2ncnc(Nc3ccc(F)c(Cl)c3)c2cc1OCCCN1CCOCC1 [gefitinib]
tumor incidence ([3]; 400 mg/kg weekly oral gavage, positive control): 70%
